Results on two molecules are retold here after US6350478B1, “Artemisia judaica fractionation method” (Phytotech Limited, priority 1996, dated 2002).

Series [1] has as its system androst-4-ene 3, 17-dione metabolism. Kind of series: Steroid metabolism (androst-4-ene 3, 17-dione metabolism) of liver cells. In kind it is cell-based, rat. The following applies: STZ diabetic rats; Extract 1 200 μg/ml, Extract 2 10-120 μg/ml, Extract 3 1 ng/ml, Insulin 1 ng/ml, Inositol 100-100 μg/ml. As to the method: Isolated hepatocytes were prepared from control animals by a modification of the double perfusior technique of Seglen (1973) involving […] animal with halothane/nitrous oxide and inserting a cannula into the hepatic portal vein. The liver was subsequently perfused first with a calcium-free buffer and then with collagenase solution. The isolated cells were freed from the connective tissue by gentle combing. Hepatocytes were suspended in Ham's F-10 nutrient solution, Williams' medium E or Krebs-Henseleit medium depending on the assay to be performed. The effects of Extract 1 on steroid metabolism in liver cells was also studied. The animals were killed by CO2 asphyxiation and the liver quickly exised and placed in ice-cold buffer (0.1M phosphate buffer, pH 7.4). The liver was homogenised using a Potter-Elvehjem homogeniser with a teflon pestle and microsomes were prepared by differential centrifugation. The microsomes were resuspended by gentle homogenisation in the same buffer. The protein content was measured by the method of Lowry using bovine serum albumin as standard and the microsomes were diluted by 10 mg protein/ml. The diluted microsomes were assayed for aniline 4-hydroxylase activity and aminopyrine N-demethylase activity (results not shown) and for androst-4-ene 3, 17-dione metabolism using published methodology. […]

The conditions of series [2]: dietary supplementation; The Lancet May 20, 1989; cited from earlier work.
The next series has as its system Glycogen phosphorylase a. Nature of the series: Glycogen phosphorylase a activity in isolated rat hepatocytes (insulin-like activity). The following applies: for Activity of liver cells: Glycogen Phosphorylase a activity: isolated rat hepatocytes, Extract 1 200 μg/ml, Extract 3 1 ng/ml, Insulin 1 ng/ml, Inositol 100-100 μg/ml. In kind it is cell-based. On the procedure: (§1) Isolated hepatocytes were prepared from control animals by a modification of the double perfusior technique of Seglen (1973) involving anaesthetising he animal with halothane/nitrous oxide and inserting a cannula into the hepatic portal vein. The liver was subsequently perfused first with a calcium-free buffer and then with collagenase solution. The isolated cells were freed from the connective tissue by gentle combing. Hepatocytes were suspended in Ham's F-10 nutrient solution, Williams' medium E or Krebs-Henseleit medium depending on the assay to be performed.
(§2) Glycogen phosphorylase a activity, as an index of insulin-like or glucagon antagonist activity can be measured using falling logarithmic concentrations of analyte in the presence or absence of insulin or glucagon.
Isolated hepatocytes, suspended in Krebs-Henseleit solution at a concentration of 10^6 cells/ml, were treated with Artemisia extract at a concentration of […] (final concentration) in the presence or absence of insulin (10^−7M) or glucagon ([…]) for 2 minutes in a shaking water bath at 37° C. under constant oxygenation with 100% oxygen. The cells were subsequently centrifuged for 30s in a Beckman Microfuge and the pellet resuspended in MOPS buffer (pH 6.5) containing sodium fluoride (12.6 g/l), EDTA (1.85 g/l) and a dithiothreitol (0.31 g/l) at 10^6 cells/ml. The suspended cells were homogenised in a Potter-Elvehjem homogeniser and the homogenate centrifuged at 300×g in a Damon-IEC refrigerated centrifuge at 4° C. for 10 minutes. The resultant supernatant was used to assay for glycogen phosphorylase a activity as described by Preiksatis & Kunos (1979). This technique involves the measurement of [^14C]glycose-1-phosphate to glycogen conversion in the presence of caffeine to inhibit glycogen phosphorylase b activity.
Each fraction was carefully evaporated to dryness and weighed in a tared vessel. The dried samples were redissolved in methanol (100 μl) and (100 μl of H2O for the void volume) and subjected to chromatography. […]

The next series concerns STZ Diabetic Rats. Kind of series: Antidiabetic activity in STZ diabetic rats. In kind it is in vivo, rat. The following applies: Extract 2 10-120 μg/ml po. As to the method:
This extract, referred to as Extract 1 or Fraction 1, was tested in rats rendered diabetic by administration of Streptotozocin (STZ), and in in vitro tests for insulin-like activity. Toxicity was tested in a bacterial (Ames) mutagenicity test.
Urine was tested for the presence of ketones and glucose using Keto-Diabur Test 5000 sticks (Boehringer Mannheim, Lewes, UK). Glucose was assayed by the glucose oxidase method as described by Trinder (1969) using a kit supplied by the Sigma Chemical Co Ltd, Pool, UK)
The animals were monitored for 7 day periods before being made diabetic, after induction of diabetes by administration of STZ and during Artemisia treatment, so that each animal acted as its own control. Food intake rose after induction of diabetes and fell again following treatment with Artemisia.

Series [3] concerns Escherichia coli and Salmonella typhimurium. Kind of series: Ames bacterial mutagenicity test, liver fraction supplemented. In kind it is cell-based. To be noted: Ames test with liver fraction. An excerpt:
Escherichia coli and Salmonella typhimurium were used in the Ames test (B. N. Ames, J. McCann, E. Yamasaki—Mutation Res. 31 (1975) 347). The bacteria used carry a mutation which makes them dependent upon the presence of a specific nutrient medium for growth. If the test substance added to the growth medium of a plate of such bacteria is mutagenic, then a small proportion of the mutations it induces will cause the nutrient dependency mutation to revert, so that the bacteria will synthesise the nutrient and grow even in its absence. Observing whether colonies grow on nutrient deficient plates in the presence and absence of the test substance will thus reveal whether the substance is mutagenic and can give a measure of the mutagenicity of the substance.

Another series relates to glucagon response. Kind of series: Glycogen phosphorylase a activity in isolated hepatocytes in the presence of glucagon (glucagon antagonist activity). In kind it is cell-based, rat. To be noted: Extract 1 200 μg/ml, Extract 3 1 ng/ml, Insulin 1 ng/ml. On the procedure: as §1, §2
Isolated hepatocytes, suspended in Krebs-Henseleit solution at a concentration of 10^6 cells/ml, were treated with Artemisia extract at a concentration of […] (final concentration) in the presence or absence of insulin (10^−7M) or glucagon ([…]) for 2 minutes in a shaking water bath at 37° C. under constant oxygenation with 100% oxygen. The cells were subsequently centrifuged for 30s in a Beckman Microfuge and the pellet resuspended in MOPS buffer (pH 6.5) containing sodium fluoride (12.6 g/l), EDTA (1.85 g/l) and a dithiothreitol (0.31 g/l) at 10^6 cells/ml. […]

[4] abbreviates: Extract 1 200 μg/ml po, Extract 3 1 ng/ml po, Insulin 1 ng/ml sc.

Take `O[C@H]1[C@H](O)[C@@H](O)[C@H](O)[C@@H](O)[C@H]1O` [Inositol]: the “Activity of liver cells: Steroid metabolism” value in series [1] is recorded as “negative”. The “improvement of nerve function in the management of complications of diabetes mellitus” value in series [2] is “no evidence”. In addition, the “Activity of liver cells: Glycogen Phosphorylase a activity” value in the series on Glycogen phosphorylase a is given as “negative”. For the same molecule, in the series with Glycogen phosphorylase a (levels of up to 1 mg/ml), the “activity in the in vitro liver cell system” value is “inactive”.

On to Insulin, for which the Excessive food intake entry in the series with STZ Diabetic Rats (Extract 1 200 μg/ml po (drinking water), Extract 3 1 ng/ml po, Insulin 1 ng/ml sc) is listed as “reversed”. In addition, the Diuresis result in the series on STZ Diabetic Rats (Extract 1 200 μg/ml po) is given as “reduced”. In addition, in the series on STZ Diabetic Rats (setting [4]), the Glucosuria entry is on record as “reduced”, the Ketonuria result was “reduced” and the Weight gain entry is “normalised”. Further, in series [3], the Bacterial mutagenicity entry is “negative”. For the same molecule, the “Activity of liver cells: Steroid metabolism” value in series [1] is “restored *”. Further, in the series on Glycogen phosphorylase a, the “Activity of liver cells: Glycogen Phosphorylase a activity” value is “decreased ***”. For the same molecule, the “Activity of liver cells: Effect on glucagon response” value with glucagon response is recorded as “reversed ***”.
